# Laboratory results taken from ChEMBL document CHEMBL2331203, “Optimization of inhibitors of the tyrosine kinase EphB4. 2. Cellular potency improvement and binding mode validation by X-ray crystallography” (J Med Chem, 2013).
# Tests used:
# [1] = target: T1, Ephrin type-B receptor 1 (Homo sapiens) (UniProt P54762); experiment: Inhibition of human Eph-B1 using [gamma-33P]ATP assessed as residual activity at 3 uM after 30 mins by radiometric assay
# T1 sequence (whole entry): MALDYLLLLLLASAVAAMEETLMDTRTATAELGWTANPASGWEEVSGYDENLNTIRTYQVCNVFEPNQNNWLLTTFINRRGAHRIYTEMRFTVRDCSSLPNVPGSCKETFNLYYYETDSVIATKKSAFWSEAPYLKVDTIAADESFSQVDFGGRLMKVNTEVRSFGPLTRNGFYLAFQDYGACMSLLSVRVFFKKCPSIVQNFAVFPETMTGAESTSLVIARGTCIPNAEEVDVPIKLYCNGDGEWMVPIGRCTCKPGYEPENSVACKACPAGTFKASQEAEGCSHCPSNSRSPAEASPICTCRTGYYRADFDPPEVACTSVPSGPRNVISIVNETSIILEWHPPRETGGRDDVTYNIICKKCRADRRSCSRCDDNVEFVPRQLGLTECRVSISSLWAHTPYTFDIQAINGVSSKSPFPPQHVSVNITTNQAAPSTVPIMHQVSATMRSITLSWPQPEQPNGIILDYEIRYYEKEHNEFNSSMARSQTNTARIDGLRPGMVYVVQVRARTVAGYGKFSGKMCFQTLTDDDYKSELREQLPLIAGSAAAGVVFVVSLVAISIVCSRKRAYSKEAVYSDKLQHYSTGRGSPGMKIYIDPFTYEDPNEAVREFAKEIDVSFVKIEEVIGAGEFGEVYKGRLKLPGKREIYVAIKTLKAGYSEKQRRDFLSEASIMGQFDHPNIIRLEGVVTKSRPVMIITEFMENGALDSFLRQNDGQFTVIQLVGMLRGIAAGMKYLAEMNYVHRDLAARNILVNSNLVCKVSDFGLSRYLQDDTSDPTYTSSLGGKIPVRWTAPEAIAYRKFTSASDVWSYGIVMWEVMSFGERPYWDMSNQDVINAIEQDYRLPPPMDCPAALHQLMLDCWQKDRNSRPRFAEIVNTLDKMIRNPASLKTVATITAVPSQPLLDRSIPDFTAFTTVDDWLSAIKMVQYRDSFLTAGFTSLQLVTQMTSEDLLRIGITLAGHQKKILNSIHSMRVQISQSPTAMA
# [2] = target: T2, Ephrin type-B receptor 2 (Homo sapiens) (UniProt P29323); experiment: Inhibition of human Eph-B2 using [gamma-33P]ATP assessed as residual activity at 3 uM after 30 mins by radiometric assay
# T2 sequence (whole entry): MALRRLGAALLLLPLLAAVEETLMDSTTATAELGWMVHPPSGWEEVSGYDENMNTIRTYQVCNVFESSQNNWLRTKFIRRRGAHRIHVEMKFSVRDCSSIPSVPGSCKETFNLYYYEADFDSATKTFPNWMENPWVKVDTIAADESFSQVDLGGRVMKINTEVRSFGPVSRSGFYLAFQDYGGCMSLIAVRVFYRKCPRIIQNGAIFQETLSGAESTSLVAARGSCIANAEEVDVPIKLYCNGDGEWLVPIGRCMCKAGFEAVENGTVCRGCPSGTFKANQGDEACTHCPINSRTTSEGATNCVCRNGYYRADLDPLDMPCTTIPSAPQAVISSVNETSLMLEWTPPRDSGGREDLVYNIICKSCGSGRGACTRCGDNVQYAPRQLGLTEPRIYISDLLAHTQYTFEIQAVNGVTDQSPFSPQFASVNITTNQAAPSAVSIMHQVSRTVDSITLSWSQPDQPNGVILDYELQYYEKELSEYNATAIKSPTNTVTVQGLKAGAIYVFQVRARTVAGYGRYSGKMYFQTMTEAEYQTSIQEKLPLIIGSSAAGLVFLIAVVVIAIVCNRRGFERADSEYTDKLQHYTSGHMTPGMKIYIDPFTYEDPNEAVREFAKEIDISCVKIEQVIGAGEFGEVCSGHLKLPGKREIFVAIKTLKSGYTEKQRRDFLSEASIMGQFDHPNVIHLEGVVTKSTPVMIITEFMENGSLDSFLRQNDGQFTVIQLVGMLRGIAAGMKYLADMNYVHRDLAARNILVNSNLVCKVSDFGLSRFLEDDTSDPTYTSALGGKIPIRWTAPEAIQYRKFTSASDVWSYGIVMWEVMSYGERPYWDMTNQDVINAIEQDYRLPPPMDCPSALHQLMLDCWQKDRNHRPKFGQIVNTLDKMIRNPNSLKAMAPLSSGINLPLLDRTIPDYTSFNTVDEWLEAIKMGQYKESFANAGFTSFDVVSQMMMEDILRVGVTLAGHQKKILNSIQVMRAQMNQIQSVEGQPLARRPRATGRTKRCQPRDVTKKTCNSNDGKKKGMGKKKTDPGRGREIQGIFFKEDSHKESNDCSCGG
# [3] = target: Tyrosine-protein kinase CSK (Homo sapiens) (UniProt P41240); experiment: Inhibition of human CSK using [gamma-33P]ATP assessed as residual activity at 3 uM after 30 mins by radiometric assay
# Sequence of Tyrosine-protein kinase CSK (Homo sapiens) (P41240 2-450 limits assumed): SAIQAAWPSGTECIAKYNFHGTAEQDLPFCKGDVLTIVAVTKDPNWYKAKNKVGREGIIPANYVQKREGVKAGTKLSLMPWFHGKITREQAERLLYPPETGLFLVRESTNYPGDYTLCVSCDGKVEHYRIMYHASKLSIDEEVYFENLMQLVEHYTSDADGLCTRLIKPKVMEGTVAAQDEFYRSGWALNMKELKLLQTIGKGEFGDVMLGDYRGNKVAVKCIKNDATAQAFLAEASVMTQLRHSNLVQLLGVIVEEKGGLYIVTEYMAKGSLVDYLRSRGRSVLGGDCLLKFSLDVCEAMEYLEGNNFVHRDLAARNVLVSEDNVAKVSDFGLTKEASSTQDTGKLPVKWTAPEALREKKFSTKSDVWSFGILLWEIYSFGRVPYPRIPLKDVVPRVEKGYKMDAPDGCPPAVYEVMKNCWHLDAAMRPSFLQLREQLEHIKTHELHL
smiles,measurement,setting,value
CCCCn1c(-c2ccccc2C)cn2c3c(=O)[nH]c(=O)n(C)c3nc12,Activity,[1],10%
same,Activity,[2],8%
same,Activity,[3],57%
